# Source: patent publication US8877773B2, “Methods for treating chronic obstructive pulmonary disease” (Indiana University Research and Technology Corporation, priority 2009, dated 2014)
# “Also recorded” adds a separate entry of the source.
# System: panic-prone (1-AG treated) rats
# Experiment: Sodium lactate (NaLac) challenge in panic-prone rats: radio-telemetry of locomotor and cardiovascular (HR, MAP) responses
# Format: in vivo, rat
# Procedure: Telemetry probes (Data Science International, St. Paul Minn.) were surgically implanted into the abdomen of anaesthetize rats to measure locomotor responses. Cardiovascular responses were measured by a femoral arterial line connected to the telemetric probe which contained a pressure transducer (Data Science International, St. Paul Minn.).
# The minipump was then sutured into place subcutaneously at the nape of the neck. The concentration of the solutions was such that 3.5 nmol/[…] per hour of 1-AG or d-AG was infused continuously into the DMH/PeF region for the remainder of the given experiment. In the case of the siRNA experiments specialized T-cannulae were implanted permitting access to a removable 28 g injector to direct siRNA injections to the same location as the 1-AG infusions. Additionally these rats had guide cannulae directed to the opposite DMH/PeF for bilateral infusion of siRNA.
# Rats received intravenous (i.v.) infusions (10 ml over 15 min of either 0.5M NaLac or 0.9% isotonic saline (when applicable)) using a syringe pump at least five days following the initiation of 1-AG or d-AG infusions. Once a stable baseline was achieved, i.v. infusions began and cardiovascular and activity data were recorded for 15 min (similar to clinical NaLac infusions).
# Cardiovascular responses (i.e., MAP and HR) were measured by a femoral arterial line connected to a telemetric probe which contained a pressure transducer (Cat. no. C50-PXT, Data Science International (DSI) St. Paul Minn.). […] MAP and HR were recorded continuously in freely moving conscious rats and are expressed as a 20 min time course. The data reported are changes in HR and MAP from the average of the baseline (t−5 to t−1) from each rat. […]
# In experiments 4-6, rats were made panic vulnerable with 1-AG. 5 days after 1-AG onset, in a counterbalanced design, rats received intraperitoneal (i.p.) injections of treatment drug or vehicle 30 min prior to i.v. infusions. […] In experiment 5, baseline in an open field (OF) behavior test of anxiety was assessed (n=8) prior to 1-AG infusions. […] Immediately following the NaLac challenge, rats were placed in the OF test. […] In experiment 6,1-AG treated rats received an injection of an alternative ORX1 receptor antagonist (30 mg/kg SB408124 (N-(6,8-Difluoro-2-methyl-4-quinolinyl)-N′-(4-(dimethylamino)phenyl)urea), Tocris, in 0.2 ml/100 g volume DMSO, n=4) or vehicle (0.2 ml/100 g volume DMSO, n=6) 30 min prior to NaLac. In experiment 7, control rats (no 1-AG or NaLac treatment) were assessed in a SI test.
# Adult male Sprague-Dawley rats were anesthetized and surgically implanted with telemetrical probes to measure cardiovascular activity prior to and during lactate infusions. After a 3 day recovery, rats were anaesthetized and had osmotic minipumps (previously filled with 1-AG) stereotaxically implanted unilaterally into the DMH. […] 1960, Tocris, in 0.2 ml/100 g volume DMSO, n=12], alprazolam (3 mg/kg, Sigma, in 0.2 ml/100 g volume DMSO, n=6) or vehicle (0.2 ml/100 g volume DMSO, n=11) 30 min prior lactate challenge.
# [1] = 30 mg/kg i.p., experiment 5 (open field cohort)
# [2] = i.p. 30 min prior to NaLac, SB334867/SB408124 30 mg/kg, alprazolam 3 mg/kg, experiments 4 and 6
structure (smiles),measurement,setting,value
"Cc1nc2ccc(NC(=O)Nc3ccnc4cccnc34)cc2o1 [SB334867, N-(2-Methyl-6-benzoxazolyl)-N′-1,5-naphthyridin-4-yl urea]",NaLac induced increases in heart rate (HR),[1],attenuated
same,NaLac induced increases in mean arterial blood pressure (MAP),[1],attenuated
same,NaLac induced increases in heart rate (HR),[2],attenuated; also recorded: blocked
same,NaLac induced increases in mean arterial blood pressure (MAP),[2],attenuated; also recorded: blocked
